We go through 14 compounds from patent US20190352276A1, “INHIBITORS OF BRUTON'S TYROSINE KINASE” (Joint Stock Company "Biocad", priority 2016, published 2019).

The subject of data set [1] is HepG2 cells (hepatocellular carcinoma). Put plainly: General cytotoxicity on HepG2 cells (CC50; therapeutic index CC50 HepG2/IC50 Mino). The following applies: therapeutic index. The format is cell-based. Summed up:
(§1)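 Cells seeded at 2*10^4 per well in DMEM, compounds added after 24 h at 200 μM to 4 μM final and incubated 72 h. Viability read with Alamar Blue to derive CC50; therapeutic index is CC50 (HepG2) divided by IC50 (Mino).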

Experiment in data set [2]: as above
The following applies: human, HepG2 cells (hepatocellular carcinoma), 72 hours, Alamar Blue. It is filed as cell-based. The essentials:
as §1

For a further data set, the target named is T1, ITK (Homo sapiens, UniProt Q08881).
T1 construct: purchased SignalChem I13-10G
T1 sequence (Q08881 1-620): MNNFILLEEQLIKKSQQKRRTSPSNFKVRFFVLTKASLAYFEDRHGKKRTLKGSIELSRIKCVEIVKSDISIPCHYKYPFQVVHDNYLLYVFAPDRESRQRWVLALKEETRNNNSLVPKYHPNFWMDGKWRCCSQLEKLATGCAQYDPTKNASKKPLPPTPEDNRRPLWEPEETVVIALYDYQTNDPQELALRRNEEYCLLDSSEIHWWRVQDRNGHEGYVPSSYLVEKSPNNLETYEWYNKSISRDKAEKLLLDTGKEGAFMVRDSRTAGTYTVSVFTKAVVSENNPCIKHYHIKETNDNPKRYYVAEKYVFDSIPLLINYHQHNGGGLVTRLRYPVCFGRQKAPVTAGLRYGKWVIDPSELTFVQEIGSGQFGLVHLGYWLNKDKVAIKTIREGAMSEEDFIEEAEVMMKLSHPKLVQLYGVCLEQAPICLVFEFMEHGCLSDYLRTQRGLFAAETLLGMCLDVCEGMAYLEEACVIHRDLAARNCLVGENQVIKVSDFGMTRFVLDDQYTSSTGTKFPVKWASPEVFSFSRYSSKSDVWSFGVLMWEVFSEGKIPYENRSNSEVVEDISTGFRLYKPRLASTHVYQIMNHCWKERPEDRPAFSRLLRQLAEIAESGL
Put plainly: In vitro kinase panel: ITK. It is filed as biochemical. Conditions: Table 9 kinase panel. The protocol: The measurements were carried out in a 25 μL reaction volume using a 96-well plate (Corning, #3642). The kinase enzyme and inhibitor were pre-incubated for 10 minutes in the reaction buffer containing 25 mM of MOPS (pH 7.2), 12.5 mM of 0-glycerophosphate, 27 mM of MgCl2, 2 mM of MnCl2, 5 mM of EGTA, 2 mM of EDTA, 0.3 mM of DTT, and 1.2 mg/mL of bovine serum albumin. Staurosporine (Abcam Biochemicals, ab146588) was used as a reference inhibitor and 0.1% DMSO in the reaction buffer—as a negative control. The solution of 0.5 mg/mL peptide substrate and 50 &M ATP in the same buffer were added; the solution was incubated for 180 minutes at 37° C. To detect the amount of ATP taken up during the kinase reaction, the equivalent amount of ADP (from the ADP Glo Detection Kit (Promega, #V9101)) was used according to the protocol. The reaction mixture was equilibrated to room temperature. 25 µL of ADP-Glo Reagent were added into each well; the plate was incubated for 40 minutes. 50 μL of Kinase Detection Reagent were added; the plate was incubated for 30 minutes. The luminescence was measured with multimode plate reader (Tecan Infinite M200Pro, Switzerland). IC50 values were calculated using Magellan 7.2 software (Tecan, Switzerland) approximating experimental points by four-parameter logistic model with the optimization by Levenberg-Marquardt.
For active compounds selected by screening using the target enzyme BTK, the values of IC50 were determined on a kinase panel: EGFR (SignalChem, #E10-11G), ITK (SignalChem, #I13-10G) and TEC (SignalChem, #T03-10G).

Data set [3] has as its system DOHH2 (follicular lymphoma). Put plainly: Antiproliferative activity, DOHH2 cells (Alamar Blue). The format is cell-based. The following applies: Homo sapiens, DOHH-2, Table 10, 72 h, average of several tests. Summed up: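 After at least one passage post-thaw, cells were seeded at ≈3*10^4 per well in RPMI-1640 containing 10% FBS. They were treated with compound dilutions (DMSO under 1%) for 72 h and then with Alamar Blue for 14-16 h. Living-cell fluorescence at 540/590 nm gave IC50 values through logistic fitting.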

The mark [4] stands for this setting: Table 10, average of several tests.

On to `C=CC(=O)N1CCC[C@@H](n2nc(-c3ccc(Oc4ccncc4)cc3)c3cncc(Cl)c32)C1` [BCD-BTK-125, (R)-1-(1-acryloylpiperidin-3-yl)-7-chloro-3-(4-(pyridin-4-yloxy)phenyl)-1H-pyrazolo[4,3-c]pyridine], for which the “CC50 (HepG2)/IC50 (Mino)” value in data set [1] (Table 11) was 4.18. The compound also yielded a CC50 at 72 h in data set [2] (Table 11) of 27.1 µM. The same compound gave an IC50 against ITK above 1 µM.

Turning to `C=CC(=O)N1CCC[C@@H](n2nc(-c3ccc(Oc4ccncc4)cc3)c3c(N)ncc(Cl)c32)C1` [BCD-BTK-139, (R)-1-(1-acryloylpiperidin-3-yl)-7-chloro-3-(4-(pyridin-4-yloxy)phenyl)-1H-pyrazolo[4,3-c]pyridin-4-amine], the “CC50 (HepG2)/IC50 (Mino)” value in data set [1] (Table 11) came to 3.88. This compound also registered a CC50 at 72 h in data set [2] (Table 11) of 39.6 µM. The compound also registered an IC50 against ITK of 0.2 µM.

As to `C=CC(=O)N1CCC[C@@H](n2nc(-c3ccc(C(=O)Nc4ccccn4)cc3)c3cncc(Cl)c32)C1` [BCD-BTK-201], in data set [1] (Table 10), the “CC50 (HepG2)/IC50 (Mino)” value is above 4.20. The compound further yielded a CC50 at 72 h in data set [2] (setting [4]) above 50 µM. Further, the IC50 in data set [3] is 7.97 µM; against ITK, above 0.3 µM.

Regarding `C=CC(=O)N1CCC[C@@H](n2nc(-c3ccc(Oc4ccncc4C#N)cc3)c3cncc(Cl)c32)C1` [BCD-BTK-202, (R)-4-(4-(1-(1-acryloylpiperidin-3-yl)-7-chloro-1H-pyrazolo[4,3-c]pyridin-3-yl)phenoxy)nicotinonitrile], in data set [1] (Table 10), the “CC50 (HepG2)/IC50 (Mino)” value is reported as 4.10. This compound returned a CC50 at 72 h in data set [2] (setting [4]) of 32 µM. For the same compound, the results for the half-maximal inhibitory concentration (IC50) (in data set [3]; against ITK) were 8.87 µM and above 0.5 µM, respectively.

Turning to `C=CC(=O)N1CCC[C@@H](n2nc(-c3ccc(Oc4cccnc4C(N)=O)cc3)c3cncc(Cl)c32)C1` [BCD-BTK-220, 3-(4-{7-chloro-1-[(3R)-1-(prop-2-enoyl)piperidin-3-yl]-1H-pyrazolo[4,3-c]pyridin-3-yl}phenoxy)pyridine-2-carboxamide], in data set [1] (Table 10), the “CC50 (HepG2)/IC50 (Mino)” value is above 9.51. The same compound gave a CC50 at 72 h in data set [2] (setting [4]) above 50 µM. The IC50 in data set [3] is 9.46 µM; at ITK it was above 0.3 µM.

With `C=CC(=O)N1CCC[C@@H](n2nc(-c3ccc(Oc4cccnc4C#N)cc3)c3cncc(F)c32)C1` [BCD-BTK-230, (R)-3-(4-(1-(1-acryloylpiperidin-3-yl)-7-fluoro-1H-pyrazolo[4,3-c]pyridin-3-yl)phenoxy)picolinonitrile], in data set [1] (Table 10), the “CC50 (HepG2)/IC50 (Mino)” value turned out to be 5.87. The CC50 at 72 h in data set [2] (setting [4]) was found to be 57.6 µM. Moreover, the IC50 in data set [3] was 14.9 µM; against ITK, above 1 µM.

On to `C=CC(=O)N1CCC[C@@H](n2nc(-c3ccc(C(=O)Nc4ccccn4)cc3)c3c(N)ncc(C#N)c32)C1` [BCD-BTK-234, (R)-4-(1-(1-acryloylpiperidin-3-yl)-4-amino-7-cyano-1H-pyrazolo[4,3-c]pyridin-3-yl)-N-(pyridine-2-yl)benzamide], for which, in data set [1] (Table 10), the “CC50 (HepG2)/IC50 (Mino)” value turned out to be 3.81. In data set [2] (setting [4]), this compound returned a half-maximal cytotoxic concentration (CC50) at 72 h of 36.6 µM. Moreover, the concentration for half-maximal inhibition (IC50) came to 8.87 µM in data set [3] and 0.0254 µM against ITK.

As for `C=CC(=O)N1CCC[C@@H](n2nc(-c3ccc(Oc4ccncc4)cc3)c3c(N)ncc(OC)c32)C1` [BCD-BTK-239, (R)-1-(1-acryloylpiperidin-3-yl)-4-amine-7-methoxy-3-(4-(pyridin-4-yloxy)phenyl)-1H-pyrazolo[4,3-c]pyridine], the “CC50 (HepG2)/IC50 (Mino)” value in data set [1] (Table 10) is reported as 4.24. In data set [2] (setting [4]), this compound registered a CC50 at 72 h of 60.2 µM. For the same compound, the IC50 in data set [3] came to 8.18 µM; on ITK, 0.0249 µM.

`C=CC(=O)N1CCC[C@@H](n2nc(-c3ccc(C(=O)Nc4ccccn4)cc3)c3c(N)ncc(OC)c32)C1` [BCD-BTK-240, (R)-4-(1-(1-acryloylpiperidin-3-yl)-4-amino-7-methoxy-1H-pyrazolo[4,3-c]pyridin-3-yl)-N-(pyridin-2-yl)benzamide]: the “CC50 (HepG2)/IC50 (Mino)” value in data set [1] (Table 10) is given as above 7.11. The CC50 at 72 h in data set [2] (setting [4]) is above 100 µM. The IC50 amounted to 2 µM in data set [3] and 0.00778 µM against ITK.

`C=CC(=O)N1CCC[C@@H](n2nc(-c3ccc(C(=O)Nc4ccccn4)cc3)c3c(N)nccc32)C1` [BCD-BTK-242, (R)-4-(1-(1-acryloylpiperidin-3-yl)-4-amino-1H-pyrazolo[4,3-c]pyridin-3-yl)-N-(pyridin-2-yl)benzamide]: the “CC50 (HepG2)/IC50 (Mino)” value in data set [1] (Table 10) is 3.03. This compound displayed a CC50 at 72 h in data set [2] (setting [4]) of 52.5 µM. Also, the IC50 turned out to be 8.38 µM in data set [3] and 0.011 µM at ITK.

Regarding `C=CC(=O)N1CCC[C@@H](n2nc(-c3ccc(C(=O)Nc4cc(C(F)(F)F)ccn4)cc3)c3c(N)ncc(Cl)c32)C1` [BCD-BTK-251, (R)-4-(1-(1-acryloylpiperidin-3-yl)-4-amino-7-chloro-1H-pyrazolo[4,3-c]pyridin-3-yl)-N-(4-(trifluoromethyl)pyridin-2-yl)benzamide], the “CC50 (HepG2)/IC50 (Mino)” value in data set [1] (Table 10) was above 13.70. This compound also returned a CC50 at 72 h in data set [2] (setting [4]) above 50 µM. The IC50 in data set [3] turned out to be 3.38 µM; on ITK it was 0.0101 µM.

As to `C=CC(=O)N1CCC[C@@H](n2nc(-c3ccc(C(=O)Nc4cc(C(F)(F)CCC)ccn4)cc3)c3cncc(Cl)c32)C1` [BCD-BTK-252, (R)-4-(1-(1-acryloylpiperidin-3-yl)-7-chloro-1H-pyrazolo[4,3-c]pyridin-3-yl)-N-(4-(1,1-difluorobutyl)pyridin-2-yl)benzamide], the “CC50 (HepG2)/IC50 (Mino)” value in data set [1] (Table 10) is above 22.43. This compound yielded a CC50 at 72 h in data set [2] (setting [4]) above 100 µM. In addition, the IC50 was 19.6 µM in data set [3] and above 1 µM against ITK.

Take `C=CC(=O)N1CCC[C@@H](n2nc(-c3ccc(C(=O)Nc4ncccc4F)cc3)c3c(N)ncc(C#N)c32)C1` [BCD-BTK-258, 4-{4-amino-7-cyano-1-[(3R)-1-(prop-2-enoyl)piperidin-3-yl]-1H-pyrazolo[4,3-c]pyridin-3-yl}-N-(3-fluoropyridin-2-yl)benzamide]: the “CC50 (HepG2)/IC50 (Mino)” value in data set [1] (Table 10) is listed as above 2.89. Further, in data set [2] (setting [4]), the CC50 at 72 h is above 50 µM. In addition, the results for the IC50 (in data set [3]; on ITK) were 15.1 µM and 0.0333 µM, respectively.

As to `C=CC(=O)N1CCC[C@@H](n2nc(-c3cnc(C(=O)Nc4cc(C(F)(F)CCC)ccn4)nc3)c3cncc(Cl)c32)C1` [BCD-BTK-292, (R)-5-(1-(1-acryloylpiperidin-3-yl)-7-chloro-1H-pyrazolo[4,3-c]pyridin-3-yl)-N-(4-(1,1-difluorobutyl)pyridin-2-yl)pyrimidine-2-carboxamide], the “CC50 (HepG2)/IC50 (Mino)” value in data set [1] (Table 10) is reported as above 29.81. In data set [2] (setting [4]), this compound gave a CC50 at 72 h above 100 µM. In addition, the IC50 in data set [3] is 20.7 µM; against ITK, 0.0635 µM.
